Results on 27 compounds are retold here after patent publication US9914730B2, “Azaquinazoline inhibitors of Atypical protein Kinase C” (Ignyta, Inc., priority 2012, dated 2018).

In this test the target is T1, full-length human PKCι (Homo sapiens, UniProt P41743).
T1 construct: Recombinant, full-length human PKCι expressed in Sf21 insect cells is also commercially available; purchased; host or cells: Sf21 insect cells
T1 sequence (P41743 1-596): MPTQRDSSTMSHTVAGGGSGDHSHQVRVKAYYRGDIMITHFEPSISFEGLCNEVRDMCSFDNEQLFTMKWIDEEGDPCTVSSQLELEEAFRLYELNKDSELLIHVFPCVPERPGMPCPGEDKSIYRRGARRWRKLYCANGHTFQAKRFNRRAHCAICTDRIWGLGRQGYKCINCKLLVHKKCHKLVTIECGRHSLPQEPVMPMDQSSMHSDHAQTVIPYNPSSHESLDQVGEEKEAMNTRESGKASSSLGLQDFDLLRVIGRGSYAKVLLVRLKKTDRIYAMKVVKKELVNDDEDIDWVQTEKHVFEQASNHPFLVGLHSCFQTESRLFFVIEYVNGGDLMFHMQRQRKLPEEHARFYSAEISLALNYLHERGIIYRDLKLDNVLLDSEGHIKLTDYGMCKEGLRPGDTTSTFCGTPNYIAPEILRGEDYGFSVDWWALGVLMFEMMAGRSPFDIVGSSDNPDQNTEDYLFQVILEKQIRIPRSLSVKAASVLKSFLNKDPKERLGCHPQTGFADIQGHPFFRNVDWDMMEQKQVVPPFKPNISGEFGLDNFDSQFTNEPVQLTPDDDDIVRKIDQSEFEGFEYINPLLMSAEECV
Briefly: PKCι IC50 IMAP assay, full-length PKCι at 150 μM ATP. It is filed as biochemical. To be noted: read-out: IC50 in IMAP assay against full length PKCi at 150 μM ATP. The method in brief: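 Dose-response IC50 values come from IMAP fluorescence polarisation after 60 min room-temperature turnover of 100 nM FAM peptide by ~15 pM insect-cell-expressed full-length PKCι at 150 μM ATP (5× KM^APP), normalised to no-compound and no-enzyme controls.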
Usually IC50 stands for the concentration at which inhibition is half-maximal. As to `Fc1cccnc1-c1cc2c(-c3nc(N4CCNCC4)c4c(C5CCC5)cncc4n3)ccnc2[nH]1` [Example 2180, 5-Cyclobutyl-2-[2-(3-fluoro-pyridin-2-yl)-1H-pyrrolo[2,3-b]pyridin-4-yl]-4-piperazin-1-yl-pyrido[3,4-d]pyrimidine], the IC50 was below 100 nM.

For the compound `c1ccc(C2(c3cc4c(-c5nc(N6CCNCC6)c6c(C7CCC7)cncc6n5)ccnc4[nH]3)CCC2)cc1` [Example 2181, 5-Cyclobutyl-2-[2-(1-phenyl-cyclobutyl)-1H-pyrrolo[2,3-b]pyridin-4-yl]-4-piperazin-1-yl-pyrido[3,4-d]pyrimidine], the IC50 is below 100 nM. `CC(C)(c1cc2c(-c3nc(N4CCNCC4)c4c(C5CCC5)cncc4n3)ccnc2[nH]1)C(F)(F)F` [Example 2182, 5-Cyclobutyl-4-piperazin-1-yl-2-[2-(2,2,2-trifluoro-1,1-dimethyl-ethyl)-1H-pyrrolo[2,3-b]pyridin-4-yl]-pyrido[3,4-d]pyrimidine]: the IC50 is below 100 nM.

On to `FC(F)(F)C1(c2cc3c(-c4nc(N5CCNCC5)c5c(C6CCC6)cncc5n4)ccnc3[nH]2)CCC1` [Example 2183, 5-Cyclobutyl-4-piperazin-1-yl-2-[2-(1-trifluoromethyl-cyclobutyl)-1H-pyrrolo[2,3-b]pyridin-4-yl]-pyrido[3,4-d]pyrimidine], for which the concentration for half-maximal inhibition (IC50) was below 100 nM. The figure for `c1cc(-c2nc(N3CCNCC3)c3c(C4CCC4)cncc3n2)c2cc(C3CCOC3)[nH]c2n1` (stereo not drawn) [Example 2184, 5-Cyclobutyl-4-piperazin-1-yl-2-[2-(tetrahydro-furan-3-yl)-1H-pyrrolo[2,3-b]pyridin-4-yl]-pyrido[3,4-d]pyrimidine] is below 100 nM.

As for `c1cc(-c2nc(N3CCNCC3)c3c(C4CCC4)cncc3n2)c2cc(C3CCCO3)[nH]c2n1` (stereo not drawn) [Example 2185, 5-Cyclobutyl-4-piperazin-1-yl-2-[2-(tetrahydro-furan-2-yl)-1H-pyrrolo[2,3-b]pyridin-4-yl]-pyrido[3,4-d]pyrimidine], the IC50 was below 100 nM. `Fc1cnc(Nc2cc(-c3nc(NC4CCNCC4F)c4c(C5CC5)cncc4n3)ccn2)c(F)c1` (stereo not drawn) [Example 2186, {5-Cyclopropyl-2-[2-(3,5-difluoro-pyridin-2-ylamino)-pyridin-4-yl]-pyrido[3,4-d]pyrimidin-4-yl}-(3-fluoro-piperidin-4-yl)-amine]: the IC50 is 100 to 1000 nM. On to `Fc1cc(F)c(Nc2cc(-c3nc(N4CCNCC4)c4c(C5CC5)cnc(C5CC5)c4n3)ccn2)nc1F` [Example 2187, [4-(5,8-Dicyclopropyl-4-piperazin-1-yl-pyrido[3,4-d]pyrimidin-2-yl)-pyridin-2-yl]-(3,5,6-trifluoro-pyridin-2-yl)-amine], for which the IC50 fell in the range of 100 to 1000 nM.

`Fc1cnc(Nc2cc(-c3nc(N4CCNCC4)c4c(C5CC5)cnc(C5CC5)c4n3)ccn2)c(F)c1` [Example 2188, [4-(5,8-Dicyclopropyl-4-piperazin-1-yl-pyrido[3,4-d]pyrimidin-2-yl)-pyridin-2-yl]-(3,5-difluoro-pyridin-2-yl)-amine]: the IC50 lay within 100 to 1000 nM. The value for `Fc1cccc(F)c1Nc1cc(-c2nc(N3CCNCC3)c3c(C4CC4)cnc(C4CC4)c3n2)ccn1` [Example 2189, [4-(5,8-Dicyclopropyl-4-piperazin-1-yl-pyrido[3,4-d]pyrimidin-2-yl)-pyridin-2 yl]-(2,6-difluoro-phenyl)-amine] was 100 to 1000 nM; that for `CC(C)(C)c1cc2c(-c3nc(N4CCNCC4)c4c(C5CC5)cnc(C5CC5)c4n3)ccnc2[nH]1` [Example 2190, 2-(2-tert-Butyl-1H-pyrrolo[2,3-b]pyridin-4-yl)-5,8-dicyclopropyl-4-piperazin-1-yl-pyrido[3,4-d]pyrimidine] was below 100 nM. The figure for `Fc1ccc(Nc2cc(-c3nc(N4CCNCC4)c4c(C5CC5)cncc4n3)ccn2)nn1` [Example 2191, [4-(5-Cyclopropyl-4-piperazin-1-yl-pyrido[3,4-d]pyrimidin-2-yl)-pyridin-2-yl]-(6-fluoro-pyridazin-3-yl)-amine] is below 100 nM; for `c1cc(-c2nc(N3CCNCC3)c3c(C4CC4)cncc3n2)c2cc(C3CCOC3)[nH]c2n1` (stereo not drawn) [Example 2192, 5-Cyclopropyl-4-piperazin-1-yl-2-[2-(tetrahydro-furan-3-yl)-1H-pyrrolo[2,3-b]pyridin-4-yl]-pyrido[3,4-d]pyrimidine] it is below 100 nM. Consider `Fc1cccc(F)c1Nc1cc(-c2nc(N3CCNCC3)c3c(C(F)(F)F)cncc3n2)ccn1` [Example 2193, (2,6-Difluoro-phenyl)-[4-(4-piperazin-1-yl-5-trifluoromethyl-pyrido[3,4-d]pyrimidin-2-yl)-pyridin-2-yl]-amine], for which the half-inhibitory concentration (IC50) is below 100 nM. With `Fc1cnc(Nc2cc(-c3nc(N4CCNCC4)c4c(C(F)(F)F)cncc4n3)ccn2)c(F)c1` [Example 2194, (3,5-Difluoro-pyridin-2-yl)-[4-(4-piperazin-1-yl-5-trifluoromethyl-pyrido[3,4-d]pyrimidin-2-yl)-pyridin-2-yl]-amine], the concentration for half-maximal inhibition (IC50) was below 100 nM.

With `Fc1cc(F)c(Nc2cc(-c3nc(N4CCNCC4)c4c(C(F)(F)F)cncc4n3)ccn2)nc1F` [Example 2195, [4-(4-Piperazin-1-yl-5-trifluoromethyl-pyrido[3,4-d]pyrimidin-2-yl)-pyridin-2-yl]-(3,5,6-trifluoro-pyridin-2-yl)-amine], the IC50 was below 100 nM. Turning to `CN(c1nc(-c2ccnc(Nc3ncc(F)cc3F)c2)nc2cncc(C3CC3)c12)C1CCNCC1(C)C` (stereo not drawn) [Example 2196, {5-Cyclopropyl-2-[2-(3,5-difluoro-pyridin-2-ylamino)-pyridin-4-yl]-pyrido[3,4-d]pyrimidin-4-yl}-(3,3-dimethyl-piperidin-4-yl)-methyl-amine], the IC50 is below 100 nM. On to `N[C@H]1CCCN(c2nc(-c3ccnc(Nc4ncc(F)cc4F)c3)nc3cncc(C4CC4)c23)C1` [Example 2198, {4-[4-(3-Amino-piperidin-1-yl)-5-cyclopropyl-pyrido[3,4-d]pyrimidin-2-yl]-pyridin-2-yl}-(3,5-difluoro-pyridin-2-yl)-amine], for which the concentration for half-maximal inhibition (IC50) was below 100 nM. `c1cc(-c2nc(N3CCNCC3)c3c(C4CCC4)cncc3n2)c2c3c([nH]c2n1)CCCC3` [Example 2199, 4-(5-Cyclobutyl-4-piperazin-1-yl-pyrido[3,4-d]pyrimidin-2-yl)-6,7,8,9-tetrahydro-5H-pyrido[2,3-b]indole]: the IC50 was in the range of 100 to 1000 nM. In the case of `Clc1ccc2[nH]c3nccc(-c4nc(N5CCNCC5)c5c(C6CCC6)cncc5n4)c3c2c1` [Example 2200, 6-Chloro-4-(5-cyclobutyl-4-piperazin-1-yl-pyrido[3,4-d]pyrimidin-2-yl)-9H-pyrido[2,3-b]indole], the IC50 was below 100 nM. On to `Clc1ccccc1-c1cc2c(-c3nc(N4CCNCC4)c4c(C5CC5)cncc4n3)ccnc2[nH]1` [Example 2202, 2-[2-(2-Chloro-phenyl)-1H-pyrrolo[2,3-b]pyridin-4-yl]-5-cyclopropyl-4-piperazin-1-yl-pyrido[3,4-d]pyrimidine], for which the IC50 is below 100 nM. `Fc1ccccc1-c1cc2c(-c3nc(N4CCNCC4)c4c(C5CCC5)cncc4n3)ccnc2[nH]1` [Example 2203, 5-Cyclobutyl-2-[2-(2-fluoro-phenyl)-1H-pyrrolo[2,3-b]pyridin-4-yl]-4-piperazin-1-yl-pyrido[3,4-d]pyrimidine]: the IC50 is below 100 nM. `Clc1ccccc1-c1cc2c(-c3nc(N4CCNCC4)c4c(C5CCC5)cncc4n3)ccnc2[nH]1` [Example 2204, 2-[2-(2-Chloro-phenyl)-1H-pyrrolo[2,3-b]pyridin-4-yl]-5-cyclobutyl-4-piperazin-1-yl-pyrido[3,4-d]pyrimidine]: the concentration for half-maximal inhibition (IC50) is below 100 nM. As to `CNC1CCCN(c2nc(-c3ccnc(Nc4ncc(F)cc4F)c3)nc3cncc(C4CC4)c23)C1` (stereo not drawn) [Example 2205, {4-[5-Cyclopropyl-4-(3-methylamino-piperidin-1-yl)-pyrido[3,4-d]pyrimidin-2-yl]-pyridin-2-yl}-(3,5-difluoro-pyridin-2-yl)-amine], the IC50 is below 100 nM. As to `CNc1ccc(Nc2nc(-c3ccnc(Nc4ncc(F)cc4F)c3)nc3cncc(C4CC4)c23)cc1` [Example 2206, N-{5-Cyclopropyl-2-[2-(3,5-difluoro-pyridin-2-ylamino)-pyridin-4-yl]-pyrido[3,4-d]pyrimidin-4-yl}-N′-methyl-benzene-1,4-diamine], the half-maximal inhibitory concentration (IC50) fell in the range of 10000 to 40000 nM.

With `FC(F)(F)C1(c2cc3c(-c4nc(N5CCNCC5)c5c(C6CC6)cncc5n4)ccnc3[nH]2)CCC1` [Example 2207, 5-Cyclopropyl-4-piperazin-1-yl-2-[2-(1-trifluoromethyl-cyclobutyl)-1H-pyrrolo[2,3-b]pyridin-4-yl]-pyrido[3,4-d]pyrimidine], the IC50 is below 100 nM.

Take `c1cc(-c2nc(N3CCNCC3)c3c(C4CC4)cncc3n2)c2c3c([nH]c2n1)CCCC3` [Example 2208, 4-(5-Cyclopropyl-4-piperazin-1-yl-pyrido[3,4-d]pyrimidin-2-yl)-6,7,8,9-telrahydro-5H-pyrido[2,3-b]indole]: the 50% inhibitory concentration (IC50) was in the range of 100 to 1000 nM.
